The subject of assay [1] is P. aeruginosa PAO1 biofilms. The assay can be described thus: Biofilm susceptibility assay (crystal violet). The class given is cell-based, Pseudomonas aeruginosa. The following applies: 150 μM, 24 h, 37 °C, 10^6 CFU/mL, OD 550 nm, compared with untreated control. How it is done: The effect of the truncated IsCT analogs on biofilms of P. aeruginosa was assessed using a method that was described previously. Briefly, 100 μL of the test peptides (final concentration, 150 μM) was added to each well of a 96-well microtiter plate (Nunc^TM, Roskilde, Denmark). Then, an aliquot of P. aeruginosa PAO1 culture was added to each well to obtain a final concentration of 10^6 CFU/mL. The bacterial culture alone was included as an untreated control. Following a 24-h incubation at 37 °C, unattached planktonic cells were discarded, and the wells were carefully washed twice with PBS with a pH of 7.4. Thereafter, biofilm biomasses were quantified by 0.1% crystal violet staining. After excess stains were discarded, the wells were washed with PBS pH 7.4 and left to air dry for 2 h at 37 °C. The biofilm biomass was subsequently dissolved by the addition of 30% acetic acid, and the plates were spectrophotometrically read at 550 nm using a BioTek Synergy HT microplate reader.

In assay [2] the test system is NO production in P. aeruginosa LPS-stimulated RAW 264.7 macrophages. The experiment in a line: Nitric oxide measurement (Griess reagent). The class given is cell-based, murine. Conditions: 48 h; for Nitrite (µM), Exp.1: replicate Exp.1; for Nitrite (µM), Mean: mean of 2 experiments, LPS alone 24.5278; for Nitrite (µM), Exp.2: replicate Exp.2. The method, then:
RAW 264.7 cells (3.5 × 10^5) were stimulated with P. aeruginosa lipopolysaccharide (100 ng/mL; Sigma, St. Louis, MO, USA) in the presence or absence of the IsCT-Δ6-8 peptide (37.5–150 μM, final concentration). After incubation at 37 °C under 5% CO2 for 48 h, supernatants were collected. The levels of nitrite (a stable breakdown of NO) were then determined using the Griess reagent system (Promega, Madison, Wisconsin, USA). The IL-6 levels in culture supernatant were quantified with the BioLegend ELISA MAXTM Deluxe Set according to the manufacturer’s protocols.

Setting [3] is: peptide 37.5 µM with LPS 100 ng/mL.
[4] abbreviates: peptide 75 µM with LPS 100 ng/mL.
The mark [5] stands for this setting: peptide 150 µM with LPS 100 ng/mL.

Where “and” joins values, the source holds several entries; their conditions need not be identical. Equal entries are not always repeated. Where no end group is shown, it is not given here.

Take ILGKIIKSLF [IsCT-Δ6-8]: the “Decrease in P. aeruginosa biofilm biomass” value in assay [1] was 33.12% and 33%. Further, the “Effect on LPS-induced nitrite increase (in words)” value in assay [2] (37.5–150 μM, in particular at 150 μM (p < 0.05 vs LPS-stimulated)) is given as “reduced”. For the same sequence, the “Nitrite (µM), Exp.1” value is reported as 24.3889 µM in assay [2] (peptide 37.5 µM with LPS 100 ng/mL, 37 °C); 23.8889 µM in assay [2] (setting [4]); 21.5000 µM in assay [2] (setting [5]). For the same sequence, the “Nitrite (µM), Mean” value is listed as 24.2500 µM in assay [2] (setting [3]), 23.5556 µM in assay [2] (setting [4]) and 21.0833 µM in assay [2] (setting [5]). Also, the “Nitrite (µM), Exp.2” value came out at 24.1111 µM in assay [2] (setting [3]), 23.2222 µM in assay [2] (setting [4]) and 20.6667 µM in assay [2] (setting [5]).

These data come from publication PMC11352108, “Anti-Biofilm and Anti-Inflammatory Properties of the Truncated Analogs of the Scorpion Venom-Derived Peptide IsCT against Pseudomonas aeruginosa” (Antibiotics, 2024).
